The values below come from ChEMBL document CHEMBL1201862, “PubChem BioAssay data set” (2004).

Some test systems named below: DU-145; SK-OV-3; HOP-62; RXF 393; M14; HL-60; NCI-H23; SN12C; SK-MEL-2; T47D; IGROV-1; SNB-19; HT-29; Hs-578T; MDA-MB-231; SW-620; HCT-15; A549; COLO 205; SNB-75.
Test in all cases: NCI tumour cell line growth inhibition, 48 h

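Cultured in 96-well plates, cells were exposed to test compound for 48 hours across five concentrations. At the GI50, growth is halved.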 Activity calls are given as the source filed them. Rule as the data show it: active = GI50 up to about 1.1 µM and inactive = higher.

As for `O=C(NC1CCN(Cc2ccccc2)CC1)c1ccccc1I`, the GI50 in the assay with DU-145 was 61.9 µM (inactive); in the assay with SK-OV-3, 22.4 µM (inactive); in the assay with HOP-62, 19.8 µM (inactive); in the assay on RXF 393 it was 43.9 µM (inactive); with M14, 18.7 µM (inactive); with HL-60, 38.9 µM (inactive). The GI50 in the assay on NCI-H23 was 26.2 µM (inactive); with SN12C, 62.7 µM (inactive); with SK-MEL-2, 23.4 µM (inactive); with T47D, 22.2 µM (inactive); with IGROV-1, 42.6 µM (inactive); in the assay with SNB-19, 51.4 µM (inactive). Moreover, the GI50 is 16.6 µM (inactive) in the assay on HT-29; 17.9 µM (inactive) in the assay with Hs-578T; 24.2 µM (inactive) in the assay with MDA-MB-231; 19.7 µM (inactive) in the assay with SW-620; 17.7 µM in the assay with HCT-15; 31.6 µM (inactive) in the assay on A549. For the same molecule, the GI50 in the assay with COLO 205 was 18.9 µM (inactive).

On to `Cc1sc2nc(-c3ccc([N+](=O)[O-])cc3)c(/C=N/N=C(N)N)n2c1C`, for which the GI50 is 1.27 µM (inactive) in the assay on DU-145; 1.7 µM (inactive) with SK-OV-3; 0.689 µM (active) with HOP-62; 0.942 µM (active) with RXF 393; 0.67 µM (active) in the assay on M14; 1.1 µM (active) in the assay on HL-60. Moreover, the GI50 with NCI-H23 is 1.43 µM (inactive); with SN12C, 1.33 µM (inactive); in the assay with SK-MEL-2 it was 0.457 µM (active); in the assay on T47D, 0.664 µM (active); in the assay with IGROV-1 it was 1.4 µM (inactive); in the assay with SNB-19 it was 0.721 µM (active). The GI50 was 0.432 µM (active) with HT-29; 1.61 µM (inactive) in the assay on Hs-578T; 0.28 µM (active) with MDA-MB-231; 0.195 µM (active) in the assay on SW-620; 1.35 µM with HCT-15; 1.45 µM (inactive) with A549. For the same molecule, the GI50 in the assay with COLO 205 is 0.251 µM (active).

With `C[C@@H]1C[C@@H](O)[C@@]2(O)C13CC(=O)OC(C3)[C@@H](C)[C@@]2(C)CO` (stereo partly specified), the GI50 in the assay on DU-145, with SK-OV-3, with HOP-62, with RXF 393, with M14 and in the assay with HL-60 was > 100 µM (inactive) throughout. The GI50 in the assay on NCI-H23, in the assay with SN12C, in the assay with SK-MEL-2, in the assay with T47D, with IGROV-1 and in the assay with SNB-19 was > 100 µM (inactive) in each case. Further, the GI50 was > 100 µM (inactive) in the assay with HT-29; > 100 µM (inactive) with Hs-578T; > 100 µM (inactive) with MDA-MB-231; > 100 µM (inactive) in the assay on SW-620; greater than 100 µM with HCT-15; > 100 µM (inactive) with A549. In addition, the GI50 with COLO 205 was > 100 µM (inactive).

With `O=C(O)c1ccc(Oc2nc3ccccc3s2)cc1`, the GI50 in the assay with DU-145, in the assay with SK-OV-3, in the assay on HOP-62, in the assay with RXF 393, with M14 and in the assay on HL-60 was > 100 µM (inactive) in each case. Also, the GI50 with NCI-H23, with SN12C, with SK-MEL-2, in the assay with T47D, with IGROV-1 and with SNB-19 was > 100 µM (inactive) each time. The GI50 was > 100 µM (inactive) with HT-29; 64.4 µM (inactive) in the assay with Hs-578T; > 100 µM (inactive) in the assay with MDA-MB-231; > 100 µM (inactive) with SW-620; greater than 100 µM in the assay with HCT-15; > 100 µM (inactive) with A549. The GI50 in the assay with COLO 205 was > 100 µM (inactive).

Consider `CCOC(=O)[C@@]12C[C@](/C=C/OC)(O[Si](C)(C)C)[C@@]13c1cc(OC)c(OC)cc1CCN3C(=O)C2O` (stereo partly specified), for which the GI50 in the assay with DU-145, with SK-OV-3, in the assay on HOP-62, in the assay on RXF 393, with M14 and with NCI-H23 was > 100 µM (inactive) throughout. In addition, the GI50 was 47.6 µM (inactive) in the assay with SNB-75; > 100 µM (inactive) in the assay on SN12C; > 100 µM (inactive) in the assay on SK-MEL-2; > 100 µM (inactive) in the assay on T47D; > 100 µM (inactive) in the assay on IGROV-1; > 100 µM (inactive) in the assay with SNB-19. Further, the GI50 in the assay with HT-29 was > 100 µM (inactive); with Hs-578T it was 5.98 µM (inactive); with MDA-MB-231, > 100 µM (inactive); with SW-620 it was > 100 µM (inactive); in the assay with HCT-15, greater than 100 µM; with A549, > 100 µM (inactive). Further, the GI50 with COLO 205 was > 100 µM (inactive).

In the case of `CCOC(=O)Oc1cc2c(ccn2C)c2c1c1ccccc1n2C(=O)OCC`, the GI50 in the assay with DU-145, in the assay on SK-OV-3, in the assay on HOP-62, in the assay with RXF 393, in the assay on M14 and in the assay on NCI-H23 was > 100 µM (inactive) throughout. Further, the GI50 in the assay with SNB-75, in the assay on SN12C, in the assay with SK-MEL-2, with T47D, in the assay on IGROV-1 and with HT-29 was > 100 µM (inactive) each time. Moreover, the GI50 was > 100 µM (inactive) in the assay on Hs-578T; > 100 µM (inactive) with MDA-MB-231; > 100 µM (inactive) in the assay with SW-620; greater than 100 µM in the assay on HCT-15; > 100 µM (inactive) in the assay with A549; > 100 µM (inactive) in the assay on COLO 205.

For the molecule `CCN1C(NN)=NS(=O)(=O)c2ccccc21`, the GI50 in the assay on DU-145, with SK-OV-3, in the assay on HOP-62, with RXF 393, in the assay on M14 and with HL-60 was > 100 µM (inactive) each time. Moreover, the GI50 with NCI-H23, in the assay with SN12C, in the assay on SK-MEL-2, in the assay with T47D, in the assay with IGROV-1 and in the assay with SNB-19 was > 100 µM (inactive) in each case. Further, the GI50 was > 100 µM (inactive) in the assay with HT-29; > 100 µM (inactive) in the assay with Hs-578T; > 100 µM (inactive) in the assay with MDA-MB-231; > 100 µM (inactive) with SW-620; greater than 100 µM in the assay with HCT-15; > 100 µM (inactive) with A549. The GI50 in the assay with COLO 205 is > 100 µM (inactive).

Take `CSC(SC)=C(C(=O)c1ccc(Cl)cc1)n1c(=O)sc2cc(Br)ccc21`: the GI50 with DU-145, in the assay with SK-OV-3, with HOP-62, with RXF 393, in the assay on M14 and in the assay on HL-60 was > 100 µM (inactive) throughout. In addition, the GI50 in the assay with NCI-H23, in the assay with SN12C, with SK-MEL-2, in the assay with T47D, with IGROV-1 and in the assay with SNB-19 was > 100 µM (inactive) each time. The GI50 with HT-29 is 98.6 µM (inactive); with Hs-578T it was > 100 µM (inactive); in the assay on MDA-MB-231, > 100 µM (inactive); with SW-620, > 100 µM (inactive); in the assay with HCT-15 it was greater than 100 µM; in the assay on A549, > 100 µM (inactive). Besides, the GI50 with COLO 205 was 66.4 µM (inactive).
